Laboratory results published in patent publication US12134610B2, “Somatostatin subtype-2 receptor (SST2R) targeted therapeutics and uses thereof” (priority 2022, dated 2024).
Where two headings read alike, the source gives them in different places. Starred links: 1 amine or outer side, 2 acyl side, 3 side chain; linkers in the order of their positions; H or OH if unused. Non-standard residues stand in square brackets, D forms with d. Residues, ends and D or L forms follow the SMILES beside them. *: point of attachment. X1 = Cc1cc(F)cc(-c2cnc(NCCNC(=O)CCOCCC(=O)*)c(-c3nc4ccc(Cl)cc4[nH]3)c2N2CCC(N)CC2)c1; X3 = Cc1cc(F)cc(-c2cnc(NCCN*)c(-c3nc4ccc(Cl)cc4[nH]3)c2N2CCC(N)CC2)c1; Dolaproine = CO[C@@H]([C@@H]1CCCN1)[C@@H](C)C(=O)O; Dil = CC[C@H](C)[C@H](NC)[C@@H](CC(=O)O)OC; PABC = O=C(OCc1ccc(N[*:1])cc1)[*:2]; Glutaryl = O=C(CCCC(=O)[*:2])[*:1]; X2 = C[C@@H](N*)[C@@H](O)c1ccccc1; dCya = N[C@H](CS(=O)(=O)O)C(=O)O; Cit = NC(=O)NCCC[C@H](N)C(=O)O; NMeV = CN[C@H](C(=O)O)C(C)C; Sar = CNCC(=O)O

What was measured:
Assay type in all cases: cell-based
[1] = system: NCI-H524 (ATCC) human small cell lung cancer cells
How it was run: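 NCI-H524 cells (5,000/well) were exposed 24 h after plating to SMDC for 2 h, 11-point two-fold series from 1 uM. After washout they grew a further 70 h. Proliferation was read by CellTiter-Glo luminescence, % inhibition taken vs untreated control, and IC50 fitted by four-parameter nonlinear regression.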

SST2 = target: T1, SST2 (Homo sapiens, UniProt P30874); test: PathHunter CHO-K1 SST2 internalization assay; settings: PathHunter CHO-K1 SST2, 90 min
T1 construct: host or cells: PathHunter CHO-K1 SST2 cells
How it was run: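 PathHunter CHO-K1 SST2 cells, seeded and grown 48 h, were exposed to 11-point 1:3 dilutions of SMDC (top final 10 uM) for 90 min at 37 C, 5% CO2. Beta-Glo luminescence was read after 60 min at room temperature. Background-corrected duplicate means were fitted by four-parameter nonlinear regression to give IC50.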

[2] = target: T2, human somatostatin receptor subtype 2 (Homo sapiens, UniProt P30874); test: Functional cAMP assay for SSTR2 agonists (HTRF) in CHO-K1 cells; settings: CHO-K1 cells stably expressing human SST2, 20 min
T2 construct: expressed in transfected cells
How it was run: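 CHO-K1 cells stably expressing receptor, plated 4 days before assay, treated 20 min at 37° C. with compound (typically 0-10,000 nM final) plus IBMX and 1.6 μM NKH477 to raise cAMP. HTRF read, 665/620 nm ratio; cAMP from standard curve, EC50 fitted.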

[3] = 2 h treatment, washout, additional 70 h, read-out: H524 EC50

T2 sequence (P30874 whole entry): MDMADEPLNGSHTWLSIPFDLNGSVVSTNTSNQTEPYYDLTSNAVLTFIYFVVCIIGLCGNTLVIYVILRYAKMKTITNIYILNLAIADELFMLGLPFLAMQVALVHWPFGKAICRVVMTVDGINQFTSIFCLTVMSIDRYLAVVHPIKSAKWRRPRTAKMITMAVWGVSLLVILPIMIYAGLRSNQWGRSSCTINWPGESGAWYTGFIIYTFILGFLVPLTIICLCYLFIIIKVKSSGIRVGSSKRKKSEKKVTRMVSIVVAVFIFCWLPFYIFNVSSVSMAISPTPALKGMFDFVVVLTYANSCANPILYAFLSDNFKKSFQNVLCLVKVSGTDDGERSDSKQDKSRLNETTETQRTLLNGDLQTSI
T1 sequence (P30874 whole entry): as above

Row | Compound | EC50 [1, 3] [nM] | EC50 (SST2; Internalization EC50 (nM)) [nM] | EC50 ([2]; hSST2 cAMP Avg EC50 (nM)) [nM] | EC50 ([1]; 2 h) [nM] | EC50 (SST2; read-out: Internalization EC50) [nM] | EC50 ([2]; read-out: hSST2 cAMP Avg EC50) [nM]
1 | CC[C@@]1(O)C(=O)OCc2c1cc1n(c2=O)Cc2c-1nc1cc(F)c(C)c3c1c2[C@@H](NC(=O)OCc1ccc(NC(=O)[C@H](CCCNC(N)=O)NC(=O)[C@@H](NC(=O)CN2CCN(CC(=O)O)CCN(CC(=O)NCCOCCOCCOCCOCCC(=O)NCCNc4ncc(-c5cc(C)cc(F)c5)c(N5CCC(N)CC5)c4-c4nc5ccc(Cl)cc5[nH]4)CC2)C(C)C)cc1)CC3 [Compound 93] | 130 | 4.5 | 0.48 |  |  | 
2 | CC[C@@]1(O)C(=O)OCc2c1cc1n(c2=O)Cc2c-1nc1cc(F)c(C)c3c1c2[C@@H](NC(=O)OCc1ccc(NC(=O)[C@H](CCCNC(N)=O)NC(=O)[C@@H](NC(=O)[C@H](CCC(=O)O)NC(=O)CCOCCC(=O)NCCNc2ncc(-c4cc(C)cc(F)c4)c(N4CCC(N)CC4)c2-c2nc4ccc(Cl)cc4[nH]2)C(C)C)cc1C(=O)NCCN)CC3 [Compound 94] | 260 | 2.4 | 0.16 |  |  | 
3 | CC[C@H](C)[C@@H]([C@@H](CC(=O)N1CCC[C@H]1[C@H](OC)[C@@H](C)C(=O)N[C@H](C)[C@@H](O)c1ccccc1)OC)N(C)C(=O)[C@@H](NC(=O)[C@H](C(C)C)N(C)C(=O)OCc1ccc(NC(=O)[C@H](CCCNC(N)=O)NC(=O)[C@@H](NC(=O)CCCC(=O)N(C)CC(=O)NCCNc2ncc(-c3cc(C)cc(F)c3)c(N3CCC(N)CC3)c2-c2nc3ccc(Cl)cc3[nH]2)C(C)C)cc1)C(C)C [Compound 95] ({X3-Sar-Glutaryl}-V[Cit][PABC][NMeV]V[Dil][Dolaproine]-X2) |  |  |  | 5.1 | 2.2 | 0.26
4 | CC[C@H](C)[C@@H]([C@@H](CC(=O)N1CCC[C@H]1[C@H](OC)[C@@H](C)C(=O)N[C@H](C)[C@@H](O)c1ccccc1)OC)N(C)C(=O)[C@@H](NC(=O)[C@H](C(C)C)N(C)C(=O)OCc1ccc(NC(=O)[C@H](CCCNC(N)=O)NC(=O)[C@@H](NC(=O)CCCC(=O)N(C)CC(=O)N(C)CC(=O)N(C)CC(=O)NCCNc2ncc(-c3cc(C)cc(F)c3)c(N3CCC(N)CC3)c2-c2nc3ccc(Cl)cc3[nH]2)C(C)C)cc1)C(C)C [Compound 96] ({X3-Sar-Sar-Sar-Glutaryl}-V[Cit][PABC][NMeV]V[Dil][Dolaproine]-X2) |  |  |  | 21 | 4.9 | 0.47
5 | CC[C@H](C)[C@@H]([C@@H](CC(=O)N1CCC[C@H]1[C@H](OC)[C@@H](C)C(=O)N[C@H](C)[C@@H](O)c1ccccc1)OC)N(C)C(=O)[C@@H](NC(=O)[C@H](C(C)C)N(C)C(=O)OCc1ccc(NC(=O)[C@H](CCCNC(N)=O)NC(=O)[C@@H](NC(=O)CCCC(=O)N(C)CC(=O)N(C)CC(=O)N(C)CC(=O)N(C)CC(=O)N(C)CC(=O)NCCNc2ncc(-c3cc(C)cc(F)c3)c(N3CCC(N)CC3)c2-c2nc3ccc(Cl)cc3[nH]2)C(C)C)cc1)C(C)C [Compound 97] |  |  |  | 35 | 4.5 | 0.3
6 | CC[C@H](C)[C@@H]([C@@H](CC(=O)N1CCC[C@H]1[C@H](OC)[C@@H](C)C(=O)N[C@H](C)[C@@H](O)c1ccccc1)OC)N(C)C(=O)[C@@H](NC(=O)[C@H](C(C)C)N(C)C(=O)OCc1ccc(NC(=O)[C@H](CCCNC(N)=O)NC(=O)[C@@H](NC(=O)[C@H](CCC(=O)O)NC(=O)[C@H](CCC(=O)O)NC(=O)CCOCCC(=O)NCCNc2ncc(-c3cc(C)cc(F)c3)c(N3CCC(N)CC3)c2-c2nc3ccc(Cl)cc3[nH]2)C(C)C)cc1)C(C)C [Compound 98] (X1-EEV[Cit][PABC][NMeV]V[Dil][Dolaproine]-X2) |  |  |  | 120 | 2.9 | 0.25
7 | CC[C@H](C)[C@@H]([C@@H](CC(=O)N1CCC[C@H]1[C@H](OC)[C@@H](C)C(=O)N[C@H](C)[C@@H](O)c1ccccc1)OC)N(C)C(=O)[C@@H](NC(=O)[C@H](C(C)C)N(C)C(=O)OCc1ccc(NC(=O)[C@H](CCCNC(N)=O)NC(=O)[C@@H](NC(=O)[C@H](CS(=O)(=O)O)NC(=O)CCOCCC(=O)NCCNc2ncc(-c3cc(C)cc(F)c3)c(N3CCC(N)CC3)c2-c2nc3ccc(Cl)cc3[nH]2)C(C)C)cc1C(=O)NCCN)C(C)C [Compound 99] |  |  |  | 4.6 | 2.8 | 0.19
8 | CC[C@H](C)[C@@H]([C@@H](CC(=O)N1CCC[C@H]1[C@H](OC)[C@@H](C)C(=O)N[C@H](C)[C@@H](O)c1ccccc1)OC)N(C)C(=O)[C@@H](NC(=O)[C@H](C(C)C)N(C)C(=O)OCc1ccc(NC(=O)[C@H](CCCNC(N)=O)NC(=O)[C@@H](NC(=O)[C@H](CS(=O)(=O)O)NC(=O)CCOCCOCCOCCOCCC(=O)NCCNc2ncc(-c3cc(C)cc(F)c3)c(N3CCC(N)CC3)c2-c2nc3ccc(Cl)cc3[nH]2)C(C)C)cc1C(=O)NCCN)C(C)C [Compound 100] |  |  |  | 6.4 | 3.3 | 0.14
9 | CC[C@H](C)[C@@H]([C@@H](CC(=O)N1CCC[C@H]1[C@H](OC)[C@@H](C)C(=O)N[C@H](C)[C@@H](O)c1ccccc1)OC)N(C)C(=O)[C@@H](NC(=O)[C@H](C(C)C)N(C)C(=O)OCc1ccc(NC(=O)[C@H](CCCNC(N)=O)NC(=O)[C@@H](NC(=O)[C@@H](CCC(=O)O)NC(=O)CCOCCC(=O)NCCNc2ncc(-c3cc(C)cc(F)c3)c(N3CCC(N)CC3)c2-c2nc3ccc(Cl)cc3[nH]2)C(C)C)cc1C(=O)NCCN)C(C)C [Compound 101] |  |  |  | 34 | 6.7 | 0.22
10 | CC[C@H](C)[C@@H]([C@@H](CC(=O)N1CCC[C@H]1[C@H](OC)[C@@H](C)C(=O)N[C@H](C)[C@@H](O)c1ccccc1)OC)N(C)C(=O)[C@@H](NC(=O)[C@H](C(C)C)N(C)C(=O)OCc1ccc(NC(=O)[C@H](CCCNC(N)=O)NC(=O)[C@@H](NC(=O)[C@@H](CCC(=O)O)NC(=O)CCOCCC(=O)NCCNc2ncc(-c3cc(C)cc(F)c3)c(N3CCC(N)CC3)c2-c2nc3ccc(Cl)cc3[nH]2)C(C)C)cc1)C(C)C [Compound 102] (X1-[dE]V[Cit][PABC][NMeV]V[Dil][Dolaproine]-X2) |  |  |  | 130 | 19 | 0.067
11 | CC[C@H](C)[C@@H]([C@@H](CC(=O)N1CCC[C@H]1[C@H](OC)[C@@H](C)C(=O)N[C@H](C)[C@@H](O)c1ccccc1)OC)N(C)C(=O)[C@@H](NC(=O)[C@H](C(C)C)N(C)C(=O)OCc1ccc(NC(=O)[C@H](CCCNC(N)=O)NC(=O)[C@@H](NC(=O)[C@@H](CCC(=O)O)NC(=O)[C@@H](CCC(=O)O)NC(=O)CCOCCC(=O)NCCNc2ncc(-c3cc(C)cc(F)c3)c(N3CCC(N)CC3)c2-c2nc3ccc(Cl)cc3[nH]2)C(C)C)cc1)C(C)C [Compound 103] (X1-[dE][dE]V[Cit][PABC][NMeV]V[Dil][Dolaproine]-X2) |  |  |  | 620 | 24 | 0.26
12 | CC[C@H](C)[C@@H]([C@@H](CC(=O)N1CCC[C@H]1[C@H](OC)[C@@H](C)C(=O)N[C@H](C)[C@@H](O)c1ccccc1)OC)N(C)C(=O)[C@@H](NC(=O)[C@H](C(C)C)N(C)C(=O)OCc1ccc(NC(=O)[C@H](CCCNC(N)=O)NC(=O)[C@@H](NC(=O)[C@@H](CS(=O)(=O)O)NC(=O)CCOCCC(=O)NCCNc2ncc(-c3cc(C)cc(F)c3)c(N3CCC(N)CC3)c2-c2nc3ccc(Cl)cc3[nH]2)C(C)C)cc1)C(C)C [Compound 104] (X1-[dCya]V[Cit][PABC][NMeV]V[Dil][Dolaproine]-X2) |  |  |  | 24 | 2.8 | 0.062
